SMILES strings stand for the structures.

In the first test the test system is LNCaP95 cells. Description: Antiproliferative assay (resazurin, 72 h) in LNCaP95 cells. It counts as cell-based. Particulars: LNCaP-95; antiproliferation, LNCaP95, 72 h, mean of three independent experiments; read-out: IC50 (μM) LNCaP95. The procedure:
(§1) 22Rv1 cells were obtained from ATCC. LNCaP95 cells were provided by Dr. Yan Dong’s laboratory (Tulane University School of Medicine). LNCaP95 cells were maintained in an RPMI1640 medium with charcoal-stripped serum (CSS). 22Rv1 cells were maintained in an RPMI1640 medium with 10% FBS. Cells were seeded in 96-well plates (5 × 10^3 cells/well) containing a 50 μL growth medium for 24 h. After medium removal, a 100 μL fresh medium containing individual compounds at different concentrations was added to each well and incubated at 37 °C for 72 h. Then, 20 μL of resazurin was added for 2 h before recording fluorescence at 560 nm (excitation) and 590 nm (emission) using a Victor microtiter plate fluorometer (Perkin-Elmer, Waltham, MA, USA).
(In general: The colour change of resazurin is a common sign of viable cells or microbes.)
For `COc1cc(NC(=O)c2ccc(Cl)cc2O)ccc1[N+](=O)[O-]` [A8], the IC50 turned out to be 0.615 ± 0.138 µM.
For `N#Cc1cc(NC(=O)c2cc(F)ccc2O)ccc1C(F)(F)F` [B8], the IC50 is 0.396 ± 0.065 µM.
Consider `N#Cc1ccc(NC(=O)c2cc(F)ccc2O)c(F)c1` [B13], for which the IC50 worked out at 0.231 ± 0.072 µM.
Take `COc1cc(NC(=O)c2cc(Cl)ccc2O)ccc1[N+](=O)[O-]` [A18]: the IC50 came out at 2.11 ± 0.46 µM.
For the compound `Cc1cc(NC(=O)c2ccc(Cl)cc2O)ccc1[N+](=O)[O-]` [A7], the IC50 amounted to 0.789 ± 0.436 µM.
In the case of `O=C(Nc1ccc([N+](=O)[O-])c(C(F)(F)F)c1)c1ccc(Cl)cc1O` [A6], the IC50 turned out to be 0.214 ± 0.067 µM.
With `Cc1cc([N+](=O)[O-])ccc1NC(=O)c1ccc(Cl)cc1O` [A2], the IC50 was 0.62 ± 0.311 µM.
`Cc1cc(NC(=O)c2cc(Cl)ccc2O)ccc1[N+](=O)[O-]` [A17]: the IC50 is 0.867 ± 0.298 µM.
`O=C(Nc1ccc(C(F)(F)F)c(C(F)(F)F)c1)c1cc(C(F)(F)F)ccc1O` [B16]: the IC50 worked out at 0.113 ± 0.044 µM.
Take `Cc1cc([N+](=O)[O-])ccc1NC(=O)c1cc(Cl)ccc1O` [A12]: the IC50 was 0.493 ± 0.105 µM.
On the same count and under the same terms, the same measure for `COc1cc([N+](=O)[O-])ccc1NC(=O)c1cc(Br)ccc1O` [A20]: 0.304 ± 0.053 µM.
Regarding `O=C(Nc1ccnc(C(F)(F)F)c1)c1cc(F)ccc1O` [B11], the IC50 was 0.392 ± 0.136 µM.

The test is the same for the next values; noted with them: LNCaP-95; antiproliferation, approximate value; read-out: IC50 in LNCaP95 (text).
`O=C(Nc1ccc(C(F)(F)F)c(C(F)(F)F)c1)c1cc(C(F)(F)F)ccc1O` [B16]: the IC50 is ~0.1 µM.

The subject of the next test is 22RV1 cells. Description: Antiproliferative assay (resazurin, 72 h) in 22RV1 cells. Particulars: Homo sapiens, 22Rv1; antiproliferation, approximate value; read-out: IC50 in 22RV1 (text). It counts as cell-based. The protocol:
as §1
For the compound `O=C(Nc1ccc(C(F)(F)F)c(C(F)(F)F)c1)c1cc(C(F)(F)F)ccc1O` [B16], the IC50 is ~0.1 µM.

The test is the same for the next values; noted with them: Homo sapiens; 22RV1, 1.0 μM; read-out: Inhibitory Rate 22RV1 @1.0 μM.
Take `O=C(Nc1ccc([N+](=O)[O-])cc1Cl)c1cc(Br)ccc1O` [A19]: the inhibition at 1 µM is 13.4%.
As to `Nc1ccc(NC(=O)c2cc(Cl)ccc2O)c(Cl)c1` [B2], the inhibition at 1 µM is 19.6%.
Consider `O=C(Nc1ccc([N+](=O)[O-])cc1C(F)(F)F)c1cc(Cl)ccc1O` [A11], for which the inhibition at 1 µM was -8.3%.
As to `CNC(=O)c1ccc(N2C(=S)N(c3ccc(C#N)c(C(F)(F)F)c3)C(=O)C2(C)C)cc1F` [Enzalutamide, reference compound], the inhibition at 1 µM is 24.1%.
Consider `COc1cc(NC(=O)c2ccc(Cl)cc2O)ccc1[N+](=O)[O-]` [A8], for which the inhibition at 1 µM is 35.9%.
For `N#Cc1cc(NC(=O)c2cc(F)ccc2O)ccc1C(F)(F)F` [B8], the inhibition at 1 µM amounted to 60.4%.
Same read-out and setting: with `N#Cc1ccc(NC(=O)c2cc(F)ccc2O)c(F)c1` [B13] the figure was 65.6%.
Take `COc1cc(NC(=O)c2cc(Cl)ccc2O)ccc1[N+](=O)[O-]` [A18]: the inhibition at 1 µM came out at 55.4%.
Same read-out and setting: the same measure for `Cc1cc(NC(=O)c2ccc(Cl)cc2O)ccc1[N+](=O)[O-]` [A7]: 42.5%; for `O=C(Nc1ccc([N+](=O)[O-])c(C(F)(F)F)c1)c1ccc(Cl)cc1O` [A6]: 54.4%; for `Cc1cc([N+](=O)[O-])ccc1NC(=O)c1ccc(Cl)cc1O` [A2]: 47.1%.
Turning to `Cc1cc(NC(=O)c2cc(Cl)ccc2O)ccc1[N+](=O)[O-]` [A17], the inhibition at 1 µM worked out at 50.1%.
For `O=C(Nc1ccc(C(F)(F)F)c(C(F)(F)F)c1)c1cc(C(F)(F)F)ccc1O` [B16], the inhibition at 1 µM came to 64.6%.
Consider `Cc1cc([N+](=O)[O-])ccc1NC(=O)c1cc(Cl)ccc1O` [A12], for which the inhibition at 1 µM is 58%.
For the compound `COc1cc([N+](=O)[O-])ccc1NC(=O)c1cc(Br)ccc1O` [A20], the inhibition at 1 µM was 60.2%.
Turning to `O=C(Nc1ccnc(C(F)(F)F)c1)c1cc(F)ccc1O` [B11], the inhibition at 1 µM came to 47.7%.
Turning to `O=C(Nc1ccc([N+](=O)[O-])cc1Cl)c1cccc(Cl)c1` [C2], the inhibition at 1 µM is 19%.
For the compound `O=C(Nc1ccc([N+](=O)[O-])cc1Cl)c1cccc(Br)c1` [C4], the inhibition at 1 µM was 31.2%.

The test is the same for the next values; noted with them: Homo sapiens; antiproliferation, 22RV1, 72 h, mean of three independent experiments; read-out: IC50 (μM) 22RV1.
On to `COc1cc(NC(=O)c2ccc(Cl)cc2O)ccc1[N+](=O)[O-]` [A8], for which the IC50 turned out to be 2.11 ± 0.52 µM.
The same measure, in the same setting: the same measure for `N#Cc1cc(NC(=O)c2cc(F)ccc2O)ccc1C(F)(F)F` [B8]: 0.24 ± 0.048 µM; for `N#Cc1ccc(NC(=O)c2cc(F)ccc2O)c(F)c1` [B13]: 0.184 ± 0.061 µM; for `COc1cc(NC(=O)c2cc(Cl)ccc2O)ccc1[N+](=O)[O-]` [A18]: 0.483 ± 0.145 µM.
In the case of `Cc1cc(NC(=O)c2ccc(Cl)cc2O)ccc1[N+](=O)[O-]` [A7], the IC50 worked out at 0.976 ± 0.205 µM.
In the case of `O=C(Nc1ccc([N+](=O)[O-])c(C(F)(F)F)c1)c1ccc(Cl)cc1O` [A6], the IC50 worked out at 0.424 ± 0.12 µM.
As for `Cc1cc([N+](=O)[O-])ccc1NC(=O)c1ccc(Cl)cc1O` [A2], the IC50 was 0.676 ± 0.245 µM.
Take `Cc1cc(NC(=O)c2cc(Cl)ccc2O)ccc1[N+](=O)[O-]` [A17]: the IC50 turned out to be 0.324 ± 0.058 µM.
Still for that read-out and setting: with `O=C(Nc1ccc(C(F)(F)F)c(C(F)(F)F)c1)c1cc(C(F)(F)F)ccc1O` [B16] the figure was 0.111 ± 0.023 µM; with `Cc1cc([N+](=O)[O-])ccc1NC(=O)c1cc(Cl)ccc1O` [A12], 0.248 ± 0.063 µM; with `COc1cc([N+](=O)[O-])ccc1NC(=O)c1cc(Br)ccc1O` [A20], 0.242 ± 0.044 µM.
Consider `O=C(Nc1ccnc(C(F)(F)F)c1)c1cc(F)ccc1O` [B11], for which the IC50 was 0.581 ± 0.205 µM.

Still in this test, the particulars now being: Homo sapiens; observed, −log IC50, 22RV1 antiproliferation; read-out: Obs pIC50 (converted).
Take `COc1cc(NC(=O)c2ccc(Cl)cc2O)ccc1[N+](=O)[O-]` [A8]: the IC50 was 2.11 µM.
As to `N#Cc1cc(NC(=O)c2cc(F)ccc2O)ccc1C(F)(F)F` [B8], the IC50 is 0.24 µM.
As to `N#Cc1ccc(NC(=O)c2cc(F)ccc2O)c(F)c1` [B13], the IC50 is 0.184 µM.
For the compound `COc1cc(NC(=O)c2cc(Cl)ccc2O)ccc1[N+](=O)[O-]` [A18], the IC50 is 0.483 µM.
Regarding `Cc1cc(NC(=O)c2ccc(Cl)cc2O)ccc1[N+](=O)[O-]` [A7], the IC50 was 0.975 µM.
On to `O=C(Nc1ccc([N+](=O)[O-])c(C(F)(F)F)c1)c1ccc(Cl)cc1O` [A6], for which the IC50 was 0.424 µM.
For the compound `Cc1cc([N+](=O)[O-])ccc1NC(=O)c1ccc(Cl)cc1O` [A2], the IC50 is 0.676 µM.
`Cc1cc(NC(=O)c2cc(Cl)ccc2O)ccc1[N+](=O)[O-]` [A17]: the IC50 was 0.324 µM.
For `O=C(Nc1ccc(C(F)(F)F)c(C(F)(F)F)c1)c1cc(C(F)(F)F)ccc1O` [B16], the IC50 was 0.111 µM.
For `Cc1cc([N+](=O)[O-])ccc1NC(=O)c1cc(Cl)ccc1O` [A12], the IC50 was 0.248 µM.
Take `COc1cc([N+](=O)[O-])ccc1NC(=O)c1cc(Br)ccc1O` [A20]: the IC50 was 0.242 µM.
Still for that read-out and setting: with `O=C(Nc1ccnc(C(F)(F)F)c1)c1cc(F)ccc1O` [B11] the figure was 0.581 µM.

The test is the same for the next values; noted with them: enzalutamide-resistant cell lines LNCaP95 and 22RV1; SAR statements.
As to `O=C(Nc1ccc([N+](=O)[O-])cc1Cl)c1cc(Br)ccc1O` [A19], the “antiproliferative activity, in words” value is on record as “dramatic loss of activity”.
`Nc1ccc(NC(=O)c2cc(Cl)ccc2O)c(Cl)c1` [B2]: the “antiproliferative activity, in words” value is given as “complete loss of activity”.
With `O=C(Nc1ccc([N+](=O)[O-])c(C(F)(F)F)c1)c1ccc(Cl)cc1O` [A6], the “antiproliferative activity, in words” value is given as “equivalent or improved anti-proliferation potency”.
In the case of `O=C(Nc1ccc(C(F)(F)F)c(C(F)(F)F)c1)c1cc(C(F)(F)F)ccc1O` [B16], the “antiproliferative activity, in words” value is listed as “equivalent or improved anti-proliferation potency”.
`COc1cc([N+](=O)[O-])ccc1NC(=O)c1cc(Br)ccc1O` [A20]: the “antiproliferative activity, in words” value is “equivalent or improved anti-proliferation potency”.
On the same count and under the same terms, with `O=C(Nc1ccc([N+](=O)[O-])cc1Cl)c1cccc(Cl)c1` [C2] the entry was “significant loss of activity”; with `O=C(Nc1ccc([N+](=O)[O-])cc1Cl)c1cccc(Br)c1` [C4], “significant loss of activity”.

The values are drawn from PMC10222209 (Pharmaceuticals, 2023).
